Patent US20080096963A1, “Use Of A Fatty Acid For Preparing A Topical Composition For Allaying Inflammatory Reaction Due To Vennemous Hymenoptera Strings” (CEREP, priority 2004, published 2008)

Biological target: bee venom PLA2 (Apis mellifera, UniProt P00630)
Type: biochemical
Settings: pH 9

Chain of bee venom PLA2 (P00630 34-167 limits assumed): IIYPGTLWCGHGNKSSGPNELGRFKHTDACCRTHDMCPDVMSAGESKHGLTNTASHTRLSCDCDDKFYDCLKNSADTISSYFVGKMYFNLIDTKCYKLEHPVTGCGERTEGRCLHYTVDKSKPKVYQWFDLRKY

| SMILES | inhibition of the enzymatic activity of bee venom PLA2 |
| --- | --- |
| CCCCC/C=C\C/C=C\CCCCCCCC(=O)O [linoleic acid, linoleic (cis,cis-Δ^9-,Δ^12-octadecadienoic) acid] | inhibit the enzymatic activity of bee venom PLA2 in a dose-dependent manner |
| CCCCCCCC/C=C\CCCCCCCC(=O)O [oleic acid, oleic (cis-Δ^9-octadecenoic) acid] | inhibit the enzymatic activity of bee venom PLA2 in a dose-dependent manner |
